Reference: publication PMC10390775, “CETP inhibitor evacetrapib enters mouse brain tissue” (Frontiers in Pharmacology, 2023)

Tests used:
[1] = ref Krishna et al., 2017; cited from earlier work
[2] = parameters: method as in Takubo et al., 2014; details: rats; ref Takubo et al., 2014; cited from earlier work
[3] = Dalcetrapib brain distribution in rats after i.v. dosing, compared with evacetrapib in mice; type: in vivo; details: rats 10 mg/kg BW dalcetrapib i.v. vs mice 40 mg/kg BW evacetrapib, ref Takubo et al., 2014

Row | SMILES | Accumulation in adipose tissues [1] | Crossing of the blood–brain barrier [2] | Dalcetrapib brain concentration relative to evacetrapib concentration ([3]; 0.5 h after injection) | Dalcetrapib brain concentration relative to evacetrapib concentration ([3]; 24 h after injection) [fold]
1 | COc1cc(F)c(C(C)C)cc1-c1ccc(C(F)(F)F)cc1CN1C(=O)O[C@H](c2cc(C(F)(F)F)cc(C(F)(F)F)c2)[C@@H]1C [anacetrapib] | accumulate in adipose tissues |  |  | 
2 | CCC(CC)CC1(C(=O)Nc2ccccc2SC(=O)C(C)C)CCCCC1 [dalcetrapib] |  | capacity to cross the blood–brain barrier of rats | twofold lower | > 20
